From patent publication US20200308103A1, “NOVEL CRYSTALS OF HYDROXAMIC ACID DERIVATIVE, PRODUCTION METHOD THEREOF, AND PHARMACEUTICAL COMPOSITION” (FUJIFILM Toyama Chemical Co., Ltd., priority 2016, published 2020)
Where two headings read alike, the source gives them in different places.

Legend:
[1] = Stability (2): storage at 60° C. and relative humidity 75%, HPLC purity; assay type: physicochemical; conditions: relative humidity 75%; for Stability: conclusion in words
Procedure: The type I crystals, the type II crystals, and the type III crystals were stored under conditions of 60° C. and a relative humidity of 75%.
These crystals were sampled over time, and their purity was measured by HPLC.
(§1) Measurement wavelength: 254 nm
Column: Ascentis Express C18, particle size: 5 μm, 4.6 mm in inside diameter×150 mm in length
(§2) Column temperature: 40° C.
(§3) Mobile phase A: water/acetic acid=1000/1 solution
(§4) Mobile phase B: acetonitrile/acetic acid=1000/1 solution

[2] = assay type: physicochemical
Procedure: The type I crystals and the type II crystals were mixed, suspended in a 40% aqueous acetonitrile solution, and stirred at 25° C.
(§5) The mixture was sampled over time, and the crystal form was measured by powder X-ray diffraction.

[3] = assay type: physicochemical; remark: listed apart in the source
Procedure: The type I crystals and the type III crystals were mixed, suspended in acetonitrile, and stirred at 5, 25, or 40° C.
as §5

[4] = Solubility in aqueous sulfobutyl ether-β-cyclodextrin (SBEβCD) solution; assay type: physicochemical; conditions: for solubility: aqueous with cosolvent or surfactant or cyclodextrin, thermodynamic from solid, read-out: Solubility (dissolved / not dissolved)
Procedure: 32.4 mL of water for injection was added to 6.00 g of sulfobutyl ether-β-cyclodextrin (CYCLOLAB Cyclodextrin Research & Development Laboratory Ltd.) (hereinafter also referred to as “SBEβCD”), and the solution was then stirred at 25° C. for 10 minutes. After the dissolution of the substance had been confirmed by visual observation, the mixed solution was cooled to 10° C. Thereafter, 0.50 g of type I crystal or type II crystal was added to the reaction mixture, and the obtained solution was then heated stepwise, until the crystal was dissolved in the solution.
32.5 mL of water for injection was added to 6.00 g of SBEβCD, and the solution was then stirred at 25° C. for 10 minutes. After the dissolution of the substance had been confirmed by visual observation, the mixed solution was cooled to 0° C., 5° C. or 10° C. Thereafter, 0.48 g of type 111 crystal was added to the reaction mixture, and the obtained solution was then stirred, until the crystal was dissolved in the solution.

[5] = Stability (1): light irradiation, HPLC purity; assay type: physicochemical; conditions: for Stability against light: 1,200,000 lx·hr, conclusion in words
Procedure: Test Example 5 Stability (1) The type I crystals, the type II crystals, and the type Ill crystals were placed in a light stability tester and irradiated with light (1,200,000 lx·hr) (light source: D65 lamp (FLR20S-D-EDL-D65/M)).
The purity of the crystals of each type was measured by HPLC.
as §1
Column: Ascentis Express C18 (Sigma-Aldrich Japan), particle diameter: 5 μm, inner diameter 4.6 mm×length 150 mm
as §2, §3, §4

[6] = Hygroscopic properties (storage, weight change); assay type: physicochemical
Procedure: The type I crystals and the type III crystals were stored under conditions of 25° C. and a relative humidity of 97%.
These crystals were sampled over time, and the weights of the crystals were measured to determine the rates of change in weight.
Rate of change in weight (%)=((B−A)/A)×100
A: Weight of the crystals before the start of the test
B: Weight of the crystals after the start of the test

[7] = Physical stability (2): type I + type II crystals suspended in acetonitrile, crystal form by powder X-ray diffraction; assay type: physicochemical; conditions: acetonitrile (nonaqueous conditions), conclusion in words
Procedure: The type I crystals and the type 11 crystals were mixed, suspended in acetonitrile, and stirred at 5, 25, or 40° C.
as §5

[8] = biological target: uridyldiphospho-3-O-acyl-N-acetylglucosamine deacetylase (LpxC) (Pseudomonas aeruginosa, UniProt P47205); conditions: known from Patent Literature 1; cited from earlier work
Sequence of uridyldiphospho-3-O-acyl-N-acetylglucosamine deacetylase (LpxC) (P47205 whole entry): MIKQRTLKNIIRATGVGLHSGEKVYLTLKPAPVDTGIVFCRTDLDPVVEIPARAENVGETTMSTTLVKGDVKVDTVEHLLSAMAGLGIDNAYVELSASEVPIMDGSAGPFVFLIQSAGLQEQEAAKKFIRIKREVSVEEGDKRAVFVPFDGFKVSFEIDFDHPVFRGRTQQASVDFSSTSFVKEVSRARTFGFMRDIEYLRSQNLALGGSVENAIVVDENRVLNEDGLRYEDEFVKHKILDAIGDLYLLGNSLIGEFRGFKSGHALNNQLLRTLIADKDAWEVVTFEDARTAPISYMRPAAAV

[9] = after light irradiation 1,200,000 lx·hr, D65 lamp
[10] = light stability test, before start of test
[11] = 25° C., relative humidity 97%, 4 weeks

Row | SMILES | HPLC purity (%) ([1]; 4 weeks) | HPLC purity (%) ([1]; 7 weeks) | HPLC purity (%) ([1]; 13 weeks) | HPLC purity (%) ([1]; before start of test) | Physical stability / crystal transformation [2] | Physical stability / crystal transformation [3] | Temperature at which the crystal was dissolved in the solution [4] [°C] | Stability against light [5] | HPLC purity (%) [5, 9] [%] | HPLC purity (%) [5, 10] [%] | Rate of change in weight (%) [6, 11] [%] | Physical stability / crystal transformation [7] | Stability [1] | further results
1 | CNC(=O)[C@@](C)(C(=O)NO)N(C)C(=O)c1ccc(C#Cc2ccc([C@H](O)CO)cc2)cc1 [Type I crystals, (2S)-2-((4-((4-((1S)-1,2-dihydroxyethyl)phenyl)ethynyl)benzoyl)(methyl)amino)-N-hydroxy-N′,2-dimethylmalonamide, reference compound] | 98.7 | 97.6 | 90.4 | 99.2 | transformed to the type II crystals | transformed to the type III crystals | 25 | reduced | 96.1 | 99.2 | 0.80 | transformed to the type III crystals | – | HPLC purity (%) ([1]; 13 weeks, listed as type I crystals): approximately 90%; solubility ([4]; 10 °C, 10 ° C.): < 15.4 mg/mL; solubility ([4]; 15 °C, 15 ° C.): < 15.4 mg/mL; solubility ([4]; 20 °C, 20 ° C.): < 15.4 mg/mL; solubility ([4]; 25 °C, 25 ° C.): > 15.4 mg/mL; Rate of change in weight (%) ([6]; 25° C., relative humidity 97%, 13 weeks): 1.09%; Rate of change in weight (%) ([6]; 25° C., relative humidity 97%, 13 weeks, listed as type I crystals): ≥ 1%
2 | CNC(=O)[C@@](C)(C(=O)NO)N(C)C(=O)c1ccc(C#Cc2ccc([C@H](O)CO)cc2)cc1 [Type III crystals, (2S)-2-((4-((4-((1S)-1,2-dihydroxyethyl)phenyl)ethynyl)benzoyl)(methyl)amino)-N-hydroxy-N′,2-dimethylmalonamide] | 99.3 | 98.6 | 94.8 | 99.5 | – | more stable than the type I crystals | ≤ 0 | more stable against light than the type I crystals | 99.4 | 99.5 | 0.10 | more stable than the type I crystals and the type II crystals | more stable than the type I crystals | HPLC purity (%) ([1]; 13 weeks, listed as type III crystals): approximately 95%; Stability ([1]; listed as type Ill crystals): most stable; solubility ([4]; 0 °C, 0 ° C.): > 14.8 mg/mL; solubility ([4]; 5 °C, 5 ° C.): > 14.8 mg/mL; Rate of change in weight (%) ([6]; 25° C., relative humidity 97%, 16 weeks): 0.03%; Rate of change in weight ([6]; 25° C., relative humidity 97%, time not stated): ≤ 0.1%; Hygroscopic properties ([6]; conclusion in words): low
3 | CNC(=O)[C@@](C)(C(=O)NO)N(C)C(=O)c1ccc(C#Cc2ccc([C@H](O)CO)cc2)cc1 [compound A, (2S)-2-((4-((4-((1S)-1,2-dihydroxyethyl)phenyl)ethynyl)benzoyl)(methyl)amino)-N-hydroxy-N′,2-dimethylmalonamide] | – | – | – | – | – | – | – | – | – | – | – | – | – | LpxC inhibitory activity [8]: excellent
4 | CNC(=O)[C@@](C)(C(=O)NO)N(C)C(=O)c1ccc(C#Cc2ccc([C@H](O)CO)cc2)cc1 [Type II crystals, (2S)-2-((4-((4-((1S)-1,2-dihydroxyethyl)phenyl)ethynyl)benzoyl)(methyl)amino)-N-hydroxy-N′,2-dimethylmalonamide] | 98.7 | 97.7 | 91.2 | 99.1 | more stable than the type I crystals | – | 25 | – | 98.5 | 99.1 | – | transformed to the type III crystals | more stable than the type I crystals | HPLC purity (%) ([1]; 13 weeks, listed as type II crystals): approximately 91%; Stability against light ([5]; listed as type 11 crystals): more stable against light than the type I crystals
